# Earlier results as cited in patent US7153888B2, “Stabilization of benzoyl peroxide in solution” (Alpharx Inc., priority 2004, dated 2006).
# Key:
# [1] = not given; remark: listed apart in the source
smiles,measurement,setting,value
O=C(OOC(=O)c1ccccc1)c1ccccc1 [benzoyl peroxide],solubility,"common solvents such as alcohol, PEG and propylene glycol",below 20 mg/ml
same,drop of solubility,"water-miscible solvent, water content grows from 0 to 25%",2–4 orders of magnitude
same,stability by solvent,[1]; in PEG 400,least stable
same,time until destroyed,"[1]; in the presence of ethanol and acidic chelating agents, stored at 30° C. or 40° C.",≤ 1 month
same,first-order K value of decomposition,"[1]; polyethylene glycol ointment base, 24° C.",0.028 day⁻¹
same,half-life (50% content decrease),"[1]; pure BP in different solvents, room temperature",151 to 6380 h
same,potency of benzoyl peroxide suspension (decrease from 5%),"[1]; suspension in polyethylene glycol ointment base, 50° C., 5 days",less than 1%
